Patent US20200123208A1, “PEPTIDES AND NEMATICIDAL COMPOSITIONS” (priority 2017, published 2020)

How the values were obtained:
Type in all cases: in vivo
[1] = system: mixed-stage Caenorhabditis elegans; test: C. elegans chemotaxis assay (non-target nematode); conditions: 100 μM, 24 h, no statistically significant impact
Protocol: C. elegans wild-type N2 Bristol strain were obtained from the C. elegans Genomics Center and maintained on a Escherichia coli (strain OP50) lawn on nematode growth medium (NGM) agar plates (3 g/l NaCl, 17 g/l agar, 2.5 g/l peptone, 5 mg/l cholesterol, 25 mM KH2PO4 (pH 6.0), 1 mM CaCl2, 1 mM MgSO4) at 20° C.. Chemotaxis assays were performed in a 9 cm diameter Petri dish on NGM agar which was split into a positive and negative side with a central ‘dead zone’ of 1.5 cm diameter. 100 mixed-staged C. elegans were washed three times in M9 buffer and soaked in 100 μM PPN uNLP, or M9 vehicle control for 24 hours. 2 μl of 50 mM sodium acetate, 0.5% pyrazine, 0.5% benzaldehyde or 0.5% diacetyl was spotted onto the positive side, 2 μl of ddH2O was spotted onto the negative side. Pyrazine, benzaldehyde and diacetyl volatile attractants were assayed immediately whereas the water soluble sodium acetate was assayed 18 hours following addition to the plate. Assays were maintained in the dark at 20° C., and counted after 1 hour.

[2] = system: Globodera pallida infective stage juveniles (J2s); test: Chemosensory (chemotaxis) assay towards root exudate, G. pallida J2s; conditions: 100 μM uNLP, 24 h, mean+/-SEM
Protocol: (§1) Predicted uNLPs from both M. incognita and G. pallida were synthesised by EZBiolab and dissolved into pH adjusted ddH2O to make a 5 mM stock which was aliquoted and stored at −20° C. J2s of both M. incognita and G. pallida were incubated for 24 hours in 200 μl of each peptide in a 24 well plate (SPL Lifesciences, South Korea) at a defined concentration.
A 60 mm Petri dish was divided into two segments, a positive and a negative side, with a 0.5 cm ‘dead zone’ either side of the centre point. The petri dish was filled with 15 ml of 0.25% w/v agar which was allowed to solidify. 3 ml of 0.25% w/v agar slurry in spring water (pH 7, agitated with a magnetic stirrer for several hours to give a smooth consistency) was added to the petri dish and spread evenly over the surface. Root diffusate (attractant) and water only (control) 0.25% agar plugs were embedded in the agar slurry, either side of the assay arena. Root diffusate was collected from 10 tomato plants, aged 3-6 weeks in 1 litre pots, by pouring 500 ml of ddH2O through the soil three times. Diffusate from each plant was combined, filter sterilised and stored at 4° C. for a maximum of 1 month. Root diffusate agar plugs were made by melting 1.25% agar in ddH2O, cooling to 50° C. before mixing with 4 parts of root diffusate. The agar was then allowed to solidify at room temperature. 100 uNLP pre-treated M. incognita or G. pallida J2s were added by pipette to the centre of the plate. J2s which moved out of the ‘dead zone’ after 3 hours were counted and their location (+/−) scored. The distribution of J2s were used to create a chemotaxis index for each plate, which formed one replicate, a total of 10 replicates where completed for each uNLP treatment.

[3] = system: Meloidogyne incognita J2s; test: B. subtilis and C. reinhardtii plant protection assay, M. incognita; conditions: tomato
Protocol: (§2) Tomato seeds were sterilised with 2.5% NaOCl for 15 minutes, washed 5 times in ddH2O and germinated on 0.5% Murashige and Skoog plates at 23° C. […] Invasion assays were performed by mixing 500 pre-treated M. incognita or G. pallida J2s with agar slurry and a single tomato seedling (2 days post germination) in a 6 well plate. Assays were left at 23° C. for 24 hours in the case of M. incognita and at 18° C. for 24 hours in the case of G. pallida under a 16 hour light and 8 hour darkness cycle. Seedlings were stained using acid fuschin [69] and the number of nematodes within the roots counted.
(§3) B. subtilis were grown overnight in LB media containing ampicillin (100 μg/ml) at 37° C. with shaking, and harvested in the log phase of growth determined by measuring OD600nm. Five ml of culture at 0.5 OD was spun down and the pellet mixed with 3 ml of agar slurry and 500 J2s from either G. pallida or M. incognita. C. reinhardtii clones were grown at 23° C. with shaking, cultures in the log phase were measured at OD750 and 5 ml of culture at 0.5 OD was pelleted by centrifugation. C. reinhardtii pellets were mixed with 3 ml of agar slurry and 500 J2s from either G. pallida or M. incognita. Plant invasion assays were performed as described above.
uNLP secretion inserts, and vector pChlamy_3 were digested using Kpnl/Xbal (New England Biolabs, USA), ligated using T4 ligase (New England Biolabs, USA), and cloned into Escherichia coli One Shot® TOP10 chemically competent cells (Life Technologies, USA) following manufacturer's instructions. Ampicillin (Sigma Aldrich, USA) was used to select E. coli containing the pChlamy_3 plasmid, which was subsequently extracted using the High Pure Plasmid Isolation Kit (Roche) and sequenced (Eurofins Genomics, UK) to identify correct clones. C. reinhardtii was transformed by electroporation following manufacturer's instructions (GeneArt® Chlamydomonas Engineering Kit, Life Technologies) and individual colonies grown on TAP-Agar-Hygromycin plates (10 μg/mL) (Sigma Aldrich, USA) at 23° C. Colonies were picked and grown at 23° C. in 100 ml TAP growth media (Invitrogen, USA) with constant orbital agitation. qRT-PCR was performed to identify clones with the highest level of uNLP expression, which were then selected for downstream assays (pChlamy universal FWD: […], nlp-15b REV: CTACTAGTCGAGGCCGGTA; Mi-nlp-9f REV: GAACGGGCGGATGAAGTAG).
uNLP secretion inserts, and vector pBE-S were digested using Xbal/Mlul (New England Biolabs, USA), ligated using T4 ligase (New England Biolabs, USA), and cloned into E. coli One Shot® TOP10 chemically competent cells (Life Technologies, USA) following manufacturer's instructions. […]

[4] = system: Meloidogyne incognita J2s; test: Tomato invasion assay, M. incognita J2s
Protocol: as §1, §2

[5] = system: Globodera pallida J2s; test: B. subtilis and C. reinhardtii plant protection assay, G. pallida; conditions: tomato
Protocol: as §2
as §3, with “above. […]” for “above.”

SFDSFTGPGFTGLD [Mi-NLP-15b]
chemotaxis index (Cl) towards sodium acetate ([1]; control 0.4269): 0.3142+/−0.039
chemotaxis index (Cl) towards pyrazine ([1]; control 0.4904): 0.4959+/−0.089
chemotaxis index (Cl) towards diacetyl ([1]; control 0.6638): 0.6640+/−0.126
chemotaxis index (Cl) towards benzaldehyde ([1]; control 0.7026): 0.7032+/−0.075
chemotaxis index (Cl) towards root exudate [2]: −0.04762+/−0.1983
M. incognita invasion relative to control ([3]; B. subtilis cultures secreting the uNLP): 26.63%+/−8.12
M. incognita invasion relative to untransformed C. reinhardtii ([3]; C. reinhardtii cultures secreting the uNLP): 10.82%+/−6.574
host invasion compared to controls ([4]; 100 μM uNLP, 24 h, tomato seedlings, normalised to negative control): 32.22%+/−8.122
J2 invasion relative to control ([4]; Mi-NLP-15b 100 nM, 24 h): 69.9%+/−10.66
J2 invasion relative to control ([4]; Mi-NLP-15b 1 μM, 24 h): 59.05%+/−8.545
J2 invasion relative to control ([4]; Mi-NLP-15b 10 μM, 24 h): 54.62%+/−8.362
J2 invasion relative to control ([4]; Mi-NLP-15b 100 μM, 24 h (dilution series)): 35.06%+/−6.407
G. pallida invasion relative to control groups ([5]; B. subtilis secreting the uNLP): 51.98%+/−13.29
G. pallida invasion relative to controls ([5]; C. reinhardtii expressing the uNLP): 30.95%+/−9.021
